Common to all, as to assay: NCI tumour cell line growth inhibition, 48 h
Assay [1] relates to RXF 393 renal.
Assay [2] concerns UACC-62 melanoma.
Assay [3] concerns SNB-75 CNS.
Assay [4] relates to CAKI-1 renal.
In assay [5] the test system is MOLT-4 leukemia.
Assay [6] relates to U251 CNS.
In assay [7] the test system is SK-MEL-28 melanoma.
Assay [8] relates to OVCAR-4 ovarian.
The test system of assay [9] is IGROV1 ovarian.
Assay [10] concerns NCI-H460 lung.

The values that follow come from PubChem BioAssay (NCI).

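Compound exposure: 48 hours, 5 concentrations, 96-well plates. Abbreviation: GI50, concentration required for 50% inhibition of growth. TGI: concentration producing complete growth inhibition.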 A value given as a limit tells only on which side of the number the result lay.

Consider `O=C1CS/C(=N/S(=O)(=O)c2ccc(N3N=C4c5ccccc5CC4C3c3cccs3)cc2)N1C(=O)c1ccccc1` (stereo not given), for which the GI50 was 90.7 µM in assay [1]; 23.2 µM in assay [2]; > 100000 nM in [3]; 63.9 µM in [4]; 22.2 µM in assay [5]; 36.3 µM in assay [6]. Further, the GI50 in assay [7] was > 100 µM; in [8] it was > 100 µM; in assay [9], 28.3 µM; in assay [10], > 100 µM. The TGI in assay [1] was > 100 µM; in assay [2] it was 58.4 µM; in assay [3], > 100 µM; in [4], > 100 µM; in assay [5], 53.4 µM; in [6], > 100 µM. The TGI in assay [7], in assay [8], in assay [9] and in [10] was > 100 µM in each case.

As for `CCCCC#Cc1c(I)n(C2OC(CO[Si](C)(C)C(C)(C)C)C3OC(C)(C)OC32)c(=O)n(C(=O)c2ccccc2)c1=O` (stereo not given), the GI50 is 11 µM in [1]; 17.7 µM in assay [2]; 14100 nM in assay [3]; 3.67 µM in [4]; 5.79 µM in [5]; 3.25 µM in assay [6]. Moreover, the GI50 was 6.94 µM in [7], 14 µM in assay [8], 3.96 µM in assay [9] and 10.9 µM in assay [10]. Further, the TGI is 23.9 µM in assay [1]; 32.2 µM in assay [2]; 27.5 µM in assay [3]; 18.4 µM in assay [4]; 23.6 µM in assay [5]; > 100 µM in [6]. The TGI in assay [7] stood at 22.5 µM; in assay [8] it was 27.2 µM; in assay [9], 13.4 µM; in [10], 27.4 µM.

Regarding `C=C(C)[C@@H]1CCc2c(O)c(O)c(=O)cc(C)c2C1`, the TGI in assay [1] is > 21.2 µM; in assay [2], 48.3 µM; in assay [3], > 83.3 µM; in assay [4], 10.9 µM; in assay [5] it was > 25.2 µM; in [6], > 100 µM. For the same molecule, the TGI in assay [7] was > 77.2 µM; in [8], > 100 µM; in assay [9] it was > 100 µM; in [10], 3.54 µM.

Consider `COc1ccc(-c2cc3ccccc3[nH]c2=O)cc1OC`, for which the TGI in [1], in assay [2], in assay [3], in [4], in assay [5] and in [6] was > 100 µM in each case. For the same molecule, the TGI in [7], in assay [8], in assay [9] and in assay [10] was > 100 µM in each case.

In the case of `CC(C)C[C@H](NC(=O)Cn1cccc(CNC(=O)c2ccccc2)c1=O)B(O)O`, the GI50 is 0.316 µM in assay [1]; 0.486 µM in assay [2]; 320 nM in [3]; 3.7 µM in assay [4]; 0.289 µM in assay [5]; 0.517 µM in assay [6]. For the same molecule, the GI50 was 0.207 µM in assay [7], 0.897 µM in [8], 4.01 µM in [9] and 2.65 µM in assay [10]. For the same molecule, the TGI in [1] is 1.1 µM; in assay [2], 3.54 µM; in [3] it was 2.33 µM; in assay [4] it was 44.9 µM; in assay [5], > 100 µM; in [6] it was 19.2 µM. Besides, the TGI in assay [7] was 13 µM; in [8], > 77 µM; in assay [9] it was 45.8 µM; in assay [10], 15.8 µM.

Regarding `CCC1CCCCN1CC(C(C)=O)C(c1ccccc1)c1c(O)c2ccccc2oc1=O` (stereo not given), the TGI in [1], in assay [2], in [3], in assay [4], in assay [5] and in [6] was > 100 µM in each case. Also, the TGI in assay [7], in assay [8], in assay [9] and in assay [10] was > 100 µM in each case.

Regarding `COc1cc(Cl)c(CC(=O)c2c[nH]c3ccccc23)cc1OC`, the TGI in [1] is 40.9 µM; in assay [2] it was > 100 µM; in assay [3] it was 31.5 µM; in [4], > 100 µM; in assay [5], > 100 µM; in assay [6], 44.4 µM. Besides, the TGI in [7], in assay [8], in assay [9] and in assay [10] was > 100 µM throughout.

As for `O=c1cc(-c2ccccc2)[nH]c2c1CCCC2`, the GI50 was 1.8 µM in assay [1]; 5.91 µM in [2]; 1800 nM in [3]; 0.944 µM in [4]; 6.16 µM in assay [5]; 4.54 µM in [6]. Moreover, the GI50 in assay [7] is > 100 µM; in [8], 9.08 µM; in assay [9], 3.59 µM; in [10], 3.01 µM. For the same molecule, the TGI is 5.53 µM in assay [1]; > 100 µM in assay [2]; > 100 µM in [3]; > 100 µM in assay [4]; > 100 µM in assay [5]; > 100 µM in assay [6]. Moreover, the TGI in assay [7], in assay [8], in [9] and in assay [10] was > 100 µM each time.

For `O=C1NC(=O)C(c2cccc(Cl)c2)=C1Nc1ccc(Cl)c(C(=O)O)c1`, the GI50 in [1] is > 25 µM; in assay [2] it was > 25 µM; in assay [3], > 25000 nM; in [4], > 25 µM; in assay [5], > 25 µM; in [6] it was > 25 µM. In addition, the GI50 in assay [7], in assay [8], in [9] and in [10] was > 25 µM each time. Moreover, the TGI in assay [1], in assay [2], in assay [3], in assay [4], in assay [5] and in [6] was > 25 µM each time. The TGI in [7], in [8], in [9] and in assay [10] was > 25 µM throughout.

For `COc1ccc(C2NN=C3c4ccccc4CCC32)cc1` (stereo not given), the GI50 in assay [1] is 23.1 µM; in assay [2], 8.34 µM; in assay [3], 284 nM; in assay [4], 9.38 µM; in assay [5], 4.04 µM; in assay [6], 5.92 µM. Also, the GI50 in [7] is 8.26 µM; in assay [8], 3.31 µM; in assay [9] it was 2.7 µM; in [10] it was 4.86 µM. Besides, the TGI in assay [1] is > 100 µM; in assay [2], > 100 µM; in [3], 5.58 µM; in assay [4], 21.4 µM; in assay [5], > 100 µM; in [6] it was > 100 µM. Also, the TGI amounted to 76.1 µM in [7], 24.6 µM in [8], 21.4 µM in assay [9] and 71.3 µM in assay [10].
